Measurements: patent US9822082B2, “Diaminotriazine derivatives as herbicides” (BASF SE, priority 2014, dated 2017)

What was measured:
Test in all cases: pre-emergence greenhouse herbicidal test
Type in all cases: in vivo
[1] = system: AMARE (Amaranthus retroflexus); settings: pre-emergence method, scale from 0 to 100
Source text: (§1) The seeds of the test plants were sown separately for each species. For the pre-emergence treatment, the active ingredients, which had been suspended or emulsified in water, were applied directly after sowing by means of finely distributing nozzles. The containers were irrigated gently to promote germination and growth and subsequently covered with transparent plastic hoods until the plants had rooted. This cover caused uniform germination of the test plants, unless this had been impaired by the active ingredients. Depending on the species, the plants were kept at 10-25° C. or 20-35° C., respectively. The test period extended over 2 to 4 weeks. During this time, the plants were tended, and their response to the individual treatments was evaluated. Evaluation was carried out using a scale from 0 to 100. 100 means no emergence of the plants, or complete destruction of at least the aerial moieties, and 0 means no damage, or normal course of growth. A moderate herbicidal activity is given at values of at least 60, a good herbicidal activity is given at values of at least 70, and a very good herbicidal activity is given at values of at least 85. The plants used in the greenhouse experiments were of the following species: [table]

[2] = system: ABUTH (Abutilon theophrasti); settings: pre-emergence method, application rate 0.500 kg/ha, scale from 0 to 100
Source text: as §1

SETFA (Setaria faberi) = settings: pre-emergence method, scale from 0 to 100
Source text: as §1

[3] = system: ECHCG (Echinocloa crus-galli); settings: pre-emergence method, application rate 0.250 kg/ha, scale from 0 to 100
Source text: as §1

Structure (SMILES): COC1(c2nc(N)nc(Nc3c(F)c(F)cc(F)c3F)n2)CCC1 [Example 1, 6-(1-methoxycyclobutyl)-N4-(2,3,5,6-tetrafluorophenyl)-1,3,5-triazine-2,4-diamine]
- herbicidal activity against AMARE ([1]; application rate 0.500 kg/ha): very good herbicidal activity (a very good herbicidal activity is given at values of at least 85)
- herbicidal activity against ABUTH [2]: very good herbicidal activity (a very good herbicidal activity is given at values of at least 85)
- herbicidal activity against SETFA (SETFA (Setaria faberi); application rate 0.500 kg/ha): very good herbicidal activity (a very good herbicidal activity is given at values of at least 85)

Structure (SMILES): COC1(c2nc(N)nc(Nc3c(F)c(F)cc(F)c3F)n2)CCCC1 [Example 2, 6-(1-methoxycyclopentyl)-N2-(2,3,5,6-tetrafluorophenyl)-1,3,5-triazine-2,4-diamine]
- herbicidal activity against AMARE ([1]; application rate 0.500 kg/ha): very good herbicidal activity (a very good herbicidal activity is given at values of at least 85)
- herbicidal activity against ABUTH [2]: very good herbicidal activity (a very good herbicidal activity is given at values of at least 85)
- herbicidal activity against SETFA (SETFA (Setaria faberi); application rate 0.500 kg/ha): very good herbicidal activity (a very good herbicidal activity is given at values of at least 85)

Structure (SMILES): COC1(c2nc(N)nc(Nc3c(F)c(F)cc(F)c3F)n2)CCCCC1 [Example 3, 6-(1-methoxycyclohexyl)-N2-(2,3,5,6-tetrafluorophenyl)-1,3,5-triazine-2,4-diamine]
- herbicidal activity against ECHCG [3]: very good herbicidal activity (a very good herbicidal activity is given at values of at least 85)
- herbicidal activity against AMARE ([1]; application rate 0.250 kg/ha): very good herbicidal activity (a very good herbicidal activity is given at values of at least 85)
- herbicidal activity against SETFA (SETFA (Setaria faberi); application rate 0.250 kg/ha): very good herbicidal activity (a very good herbicidal activity is given at values of at least 85)
